The target in test [1] is T1, Estrogen receptor beta (Homo sapiens, UniProt Q92731). In words: Displacement of [3H]estradiol from human full-length ERbeta after 18 to 24 hrs by relative binding affinity/competitive radiometric binding assay relative to estradiol. Conditions: concentration not given here. (Displacement assays read how much labelled ligand stays bound in the presence of the test substance.)

Test [2] deals with T2, Estrogen receptor (Homo sapiens) (UniProt P03372).
T2 sequence (whole entry): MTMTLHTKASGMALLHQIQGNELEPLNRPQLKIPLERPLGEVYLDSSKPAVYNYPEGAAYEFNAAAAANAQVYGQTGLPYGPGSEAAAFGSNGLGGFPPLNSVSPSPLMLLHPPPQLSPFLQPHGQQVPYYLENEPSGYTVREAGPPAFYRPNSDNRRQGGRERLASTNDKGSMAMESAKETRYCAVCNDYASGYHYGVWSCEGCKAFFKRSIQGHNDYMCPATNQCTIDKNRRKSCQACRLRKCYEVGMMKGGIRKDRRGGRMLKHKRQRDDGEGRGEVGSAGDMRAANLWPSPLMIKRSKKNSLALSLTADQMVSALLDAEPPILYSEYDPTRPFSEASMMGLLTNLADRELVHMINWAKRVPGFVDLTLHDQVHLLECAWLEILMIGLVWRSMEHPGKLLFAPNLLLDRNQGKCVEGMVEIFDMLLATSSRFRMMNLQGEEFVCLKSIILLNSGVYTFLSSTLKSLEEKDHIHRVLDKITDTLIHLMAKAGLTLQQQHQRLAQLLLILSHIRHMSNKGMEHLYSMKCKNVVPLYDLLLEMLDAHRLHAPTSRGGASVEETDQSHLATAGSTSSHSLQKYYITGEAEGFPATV
Nature of the test: Displacement of [3H]estradiol from human full-length ERalpha after 18 to 24 hrs by relative binding affinity/competitive radiometric binding assay relative to estradiol. Conditions: concentration not given here.

In test [3] the target is T1, Estrogen receptor beta.
Description: Agonist activity at human ERbeta expressed in human HEC1 cells assessed as transcriptional activation after 24 hrs by ERE-luciferase reporter gene transfection assay
In test [4] the target is T3, Estrogen receptor (Homo sapiens, UniProt P03372).
T3 sequence (P03372 whole entry): T2 sequence (whole entry)
Description: Agonist activity at human ERalpha expressed in human HEC1 cells assessed as transcriptional activation after 24 hrs by ERE-luciferase reporter gene transfection assay

Test [5] addresses T3, Estrogen receptor. This is another data set of the same source.
Description: Agonist activity at human ERalpha in human MCF7 cells assessed as progesterone receptor endogenous genes activation after 24 hrs by qPCR
Test [6] has as its target T1, Estrogen receptor beta. This is another data set of the same source.
Description: Agonist activity at human ERbeta in human MCF7 cells assessed as otubain 2 endogenous genes activation after 24 hrs by qPCR

These results are taken from ChEMBL document CHEMBL3407405 (J Med Chem, 2015).

As a reminder, the inhibition is the share of the control response that was lost under treatment. A higher inhibition goes with a strong effect. As a reminder, the EC50 is the concentration that produces a half-maximal response. A low value points to a more potent agent.

T1 sequence (Q92731 whole entry): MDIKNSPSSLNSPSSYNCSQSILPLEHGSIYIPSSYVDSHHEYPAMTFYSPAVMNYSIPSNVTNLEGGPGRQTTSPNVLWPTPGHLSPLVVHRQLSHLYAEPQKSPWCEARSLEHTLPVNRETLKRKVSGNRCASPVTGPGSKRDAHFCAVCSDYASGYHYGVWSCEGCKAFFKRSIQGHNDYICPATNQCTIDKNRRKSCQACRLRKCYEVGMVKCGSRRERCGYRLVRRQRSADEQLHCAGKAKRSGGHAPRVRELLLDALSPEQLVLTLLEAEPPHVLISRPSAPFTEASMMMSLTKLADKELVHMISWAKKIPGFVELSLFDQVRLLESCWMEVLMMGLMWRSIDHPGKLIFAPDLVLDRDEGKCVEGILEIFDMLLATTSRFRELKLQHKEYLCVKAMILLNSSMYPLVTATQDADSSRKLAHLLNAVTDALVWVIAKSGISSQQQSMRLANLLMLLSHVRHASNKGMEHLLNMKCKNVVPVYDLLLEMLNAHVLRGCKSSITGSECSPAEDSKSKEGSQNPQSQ

For `COc1ccc(-c2ccc(O)c(/C(C)=N/O)c2)cc1Cl`, the inhibition (on Estrogen receptor beta [1]; in test [2]) was below 0.005% each time.
`C/C(=N\O)c1cc(-c2ccc(F)cc2)ccc1O`: the inhibition at Estrogen receptor beta [1] was 0.015%; in test [2] it was below 0.005%.
`C/C(=N\O)c1cc(-c2ccc(Cl)cc2)ccc1O`: the inhibition on Estrogen receptor beta [1] was 0.099%; in test [2], below 0.005%.
As to `C/C(=N\O)c1cc(-c2ccc(O)c(C)c2)ccc1O`, the inhibition at Estrogen receptor beta [1] worked out at 1.6%; in test [2], 0.1%.
As to `CC/C(=N\O)c1cc(-c2ccc(O)c(F)c2)ccc1O`, the inhibition on Estrogen receptor beta [1] is 49%; in test [2], 1.9%.
Regarding `C/C(=N\O)c1cc(-c2ccc(O)c(F)c2)ccc1O`, the EC50 on Estrogen receptor beta [3] was found to be 0.0147 µM; on Estrogen receptor [4], 0.194 µM; at Estrogen receptor [5], 2.09 µM; at Estrogen receptor beta [6] it was 0.035 µM. Further, the inhibition on Estrogen receptor beta [1] is 12%; in test [2] it was 0.16%.
In the case of `COc1ccc(-c2ccc(O)c(/C(C)=N/O)c2)cc1C`, the inhibition (on Estrogen receptor beta [1]; in test [2]) was below 0.005% each time.
As to `CC/C(=N\O)c1cc(-c2ccc(O)cc2)ccc1O`, the inhibition was 46% at Estrogen receptor beta [1] and 3% in test [2].
With `COc1ccc(-c2ccc(O)c(/C(C)=N/O)c2)cc1F`, the inhibition (on Estrogen receptor beta [1]; in test [2]) was below 0.005% each time.
Consider `C/C(=N\O)c1cc(-c2ccc(O)cc2)ccc1O`, for which the EC50 came out at 0.00397 µM on Estrogen receptor beta [3], 0.0293 µM on Estrogen receptor [4], 0.0838 µM at Estrogen receptor [5] and 0.0127 µM at Estrogen receptor beta [6]. Further, the inhibition at Estrogen receptor beta [1] stood at 46%; in test [2], 0.54%.
On to `C/C(=N\O)c1cc(-c2ccc(O)c(Cl)c2)ccc1O`, for which the inhibition came out at 1.1% on Estrogen receptor beta [1] and 0.033% in test [2].
Turning to `COc1ccc(-c2ccc(O)c(/C(C)=N/O)c2)cc1`, the results for the inhibition (at Estrogen receptor beta [1]; in test [2]) were 0.011% and below 0.005%, respectively.
For the compound `O/N=C(/c1cc(-c2ccc(O)cc2)ccc1O)C(F)(F)F`, the inhibition on Estrogen receptor beta [1] was 0.76%; in test [2], 0.036%.
